Laboratory results as given in publication PMC11905876, “Population Pharmacokinetic Modeling of Certepetide in Human Subjects With Metastatic Pancreatic Ductal Adenocarcinoma” (Clinical Pharmacology in Drug Development, 2025).

Legend:
[1] = Population pharmacokinetic analysis of certepetide plasma concentrations (first-in-human trial NCT03517176); format: in vivo; details: for WT on Vc, effect of weight on Vc / WT on Vp, effect of weight on Vp: power model exponent
Protocol: The clinical aspects of this study were conducted at 3 clinical sites in Australia. All subjects gave their informed consent. The study enrolled subjects with metastatic PDAC and was a rising dose design, with certepetide doses of 0.2, 0.8, 1.6, and 3.2 mg/kg body weight. Each subject received a certepetide monotherapy run‐in followed by 28‐day cycles of certepetide with standard‐of‐care chemotherapy (nab‐paclitaxel and gemcitabine), as previously described.[19] Each 28‐day cycle involved dosing with nab‐paclitaxel, gemcitabine, and certepetide on days 1, 8, and 15. In each dosing instance, nab‐paclitaxel was given first intravenously at a dose of 125 mg/m^2 over 30 minutes. This was immediately followed by the administration of certepetide as a slow intravenous push over 1 minute. Gemcitabine was given as an intravenous infusion at a dose of 1000 mg/m^2 over 30 minutes. Samples for PK analysis were collected before certepetide dosing and at 3, 15, and 30 minutes and 1, 3, and 6 hours after completion of the certepetide infusion. PK collections were performed during a monotherapy run‐in period and on day 1 of chemotherapy cycles 1 and 6. Modeling was performed with all available data.
Certepetide concentrations in human plasma were determined using a liquid chromatography‐tandem mass spectrometry method across a concentration range of 50.0‐2500 ng/mL, with 50.0 ng/mL as the lower limit of quantification. Briefly, a plasma sample was spiked with a deuterated internal standard and then precipitated by methanol. After centrifugation, the supernatant was transferred to a clean tube and evaporated under nitrogen. Following reconstitution with 5% methanol:water, the sample was injected into a Shimadzu Nexera UPLC that used a Kinetex EVO‐C18 column for separation using first mobile phase A (0.1% formic acid in deionized water) followed by mobile phase B (0.1% formic acid in methanol). The multiple reaction monitoring transition was monitored on an ABSciex QTRAP 5500 mass spectrometer. The transitions used for certepetide and deuterated certepetide (+6) were 494.9 → 70.1 and 497.7 → 75.0, respectively. For intraday runs, the average accuracy and precision were 10.2% and 9.6%, respectively, at a concentration of 150 ng/mL. The inter‐day accuracy and precision were 10.2% and 9.7%, respectively.
The PK analysis dataset was composed of actual dates and times of dose and concentration samples. Post‐dose PK concentration data below the limit of quantification were accounted for using the M1 method (ie, excluded from the analysis).[22] Subject covariates at baseline were derived from the source data at the baseline visit, the screening visit, or another visit before the start of certepetide administration.
NONMEM software (version 7.5.1, ICON Development Solutions)[23] was used to perform nonlinear mixed‐effects modeling. Data assembly, graphical analyses, and model simulations were performed using NONMEM (version 7.5.1) and R (version 4.3.1).
A 2‐compartment model with linear elimination was used as the starting point for model development. Interindividual variability was included in structural model parameters (eg, central volume of distribution [Vc], clearance [CL], peripheral volume of distribution [Vp], and distribution clearance [Q]). Interindividual variability, assumed to have log‐normal distribution, was calculated using Equation (1). (1) θP,i=θP,typical·e^ηP,i
The residual variance was initially modeled using an additive and proportional error model (Equation 4), which accounted for […], assay error, model misspecification, and any potential data issues (eg, incorrect dose or sample collection times). (4) Yij=IPREDij×1+ε1,ij+ε2,ij
Model development continued by adding covariates in a stepwise fashion and assessing the change in objective function value (OFV). […]

[2] = autoradiography; ref data on file; cited from earlier work
Protocol: (§1) Certepetide is administered as a slow intravenous push over 1 minute shortly after the administration of chemotherapy and/or immunotherapy. Certepetide is thought to be metabolized into its component amino acids, as expected for small peptides.

plasma proteins = details: ref data on file; cited from earlier work
Protocol: as §1

[3] = test system: patients with unresectable metastatic PDAC; set-up: method as in PMID 35803294, PMID 36982773; details: cited from earlier work
[4] = final population PK model, reference 70 kg
[5] = interim population PK model with body weight and age on clearance, typical value

Dose linearity of PK ([1]; concentration-time and dose-normalized curves at 0.2, 0.8, 1.6 and 3.2 mg/kg): linear PKs
Vc, central volume of distribution ([1]; final population PK model (2-compartment, linear elimination, NONMEM), 31 patients with metastatic PDAC, 0.2-3.2 mg/kg IV push over 1 min with nab-paclitaxel and gemcitabine, plasma LC-MS/MS, typical value, reference 70 kg): 5.87 L
Q, intercompartmental clearance ([1]; final population PK model, 31 patients with metastatic PDAC, IV, typical value): 24.9 L/h
CLR, renal clearance (dependent on CrCL) ([1]; final population PK model, 31 patients with metastatic PDAC, IV, typical value at reference CrCL 90 mL/min, purely model-derived): 4.32 L/h
Vp, peripheral volume of distribution ([1]; final population PK model, 31 patients with metastatic PDAC, IV, typical value, reference 70 kg): 10.3 L
CLNR, nonrenal clearance (independent of CrCL) ([1]; final population PK model, 31 patients with metastatic PDAC, IV, typical value, purely model-derived): 2.56 L/h
WT on Vc, effect of weight on Vc [1, 4]: 0.933
WT on Vp, effect of weight on Vp [1, 4]: 0.879
WT on Vc, effect of weight on Vc ([1]; interim population PK model): 0.940
WT on Vp, effect of weight on Vp ([1]; interim population PK model): 0.885
SMILES: CC(=O)N[C@H]1CSSC[C@@H](C(N)=O)NC(=O)[C@H](CC(=O)O)NC(=O)[C@@H]2CCCN2C(=O)CNC(=O)[C@H](CCCCN)NC(=O)[C@H](CC(=O)O)NC(=O)CNC(=O)[C@H](CCCNC(=N)N)NC1=O [Certepetide]
clearance ([1]; human, plasma, iv, interim population PK model with body weight and age on clearance, typical value, reference 70 kg, 60 years, read-out: CL, clearance (converted)): 118 mL/min
Vc, central volume of distribution ([1]; interim population PK model with body weight and age on clearance, 31 patients with metastatic PDAC, IV, typical value): 5.87 L
Q, intercompartmental clearance [1, 5]: 25.0 L/h
Vp, peripheral volume of distribution [1, 5]: 10.3 L
Route of elimination [2]: primarily undergoes renal elimination
Plasma protein binding (plasma proteins): does not bind to plasma proteins
Patients with ≥50% reduction in CA19-9 ([3]; cycle 5, day 1, certepetide with nab-paclitaxel and gemcitabine): 20 out of 22
Dose-limiting toxicities associated with the study drug ([3]; doses 0.2-3.2 mg/kg): no dose‐limiting toxicities
